The source of these data is PMC6598542, “Synthesis of a new series of 3-functionalised-1-phenyl-1,2,3-triazole sulfamoylbenzamides as carbonic anhydrase I, II, IV and IX inhibitors” (Journal of Enzyme Inhibition and Medicinal Chemistry, 2019).

Holding throughout (assay): stopped-flow CO2 hydration
Common to all, as to assay type: biochemical

For one test, the target named is T1, hCA IV (Homo sapiens, UniProt P22748).
T1 construct: gene CA4
A digest of the protocol:
(§1)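 Inhibition of recombinant human isozymes was measured by stopped-flow CO2 hydration, and Ki was obtained by non-linear least-squares fitting with the Cheng-Prusoff equation. Enzyme and inhibitor were first preincubated for 10 min at room temperature, then the reaction was followed for 5–10 s at 557 nm and 25 °C in 10 mM Hepes pH 7.4 containing 0.2 mM Phenol Red and 0.1 M Na2SO4 or NaClO4, with CO2-saturated water as substrate. Each value is the mean of at least three determinations, from at least seven inhibitor concentrations down to 0.01 nM tested in triplicate.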

In another test the target is T2, hCA II (Homo sapiens, UniProt P00918).
T2 construct: gene CA2; recombinant, cytosolic isoform
The conditions noted are these: read-out: hCAII. An outline of the steps: as §1

The target of the next test is T3, hCA I (Homo sapiens, UniProt P00915).
T3 construct: gene CA1; recombinant, cytosolic isoform
T3 sequence (P00915 2-261): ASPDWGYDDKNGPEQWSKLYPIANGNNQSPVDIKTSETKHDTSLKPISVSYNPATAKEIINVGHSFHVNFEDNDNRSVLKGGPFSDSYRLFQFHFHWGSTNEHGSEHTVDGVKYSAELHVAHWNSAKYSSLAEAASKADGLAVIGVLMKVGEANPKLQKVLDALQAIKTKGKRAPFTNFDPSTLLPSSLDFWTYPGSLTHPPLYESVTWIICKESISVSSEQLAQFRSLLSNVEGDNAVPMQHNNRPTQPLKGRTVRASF
An outline of the steps:
as §1

Another test addresses T4, hCA IX (Homo sapiens, UniProt Q16790).
T4 construct: gene CA9; recombinant, transmembrane isoform
A digest of the protocol:
as §1

T1 sequence (P22748 19-284): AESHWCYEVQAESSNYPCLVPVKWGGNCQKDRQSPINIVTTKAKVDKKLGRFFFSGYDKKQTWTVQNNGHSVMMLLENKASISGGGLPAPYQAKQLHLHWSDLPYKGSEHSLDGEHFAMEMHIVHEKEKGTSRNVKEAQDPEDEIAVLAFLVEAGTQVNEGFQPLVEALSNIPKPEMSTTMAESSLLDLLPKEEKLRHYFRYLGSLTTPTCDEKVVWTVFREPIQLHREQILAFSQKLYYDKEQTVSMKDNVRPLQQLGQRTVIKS

For `NS(=O)(=O)c1cc(C(=O)NCc2cn(-c3ccc(C(F)(F)F)cc3)nn2)ccc1Cl` [6m, 4-Chloro-3-sulfamoyl-N-((1–(4-(trifluoromethyl)phenyl)-1H-1,2,3-triazol-4-yl)methyl)benzamide], the Ki at hCA IV is 0.0899 µM; at hCA II, 0.0078 µM; on hCA I, 0.811 µM; on hCA IX, 0.0346 µM.

`NS(=O)(=O)c1cc(C(=O)NCc2cn(-c3ccccc3)nn2)ccc1F` [6n, 4-Fluoro-N-((1-phenyl-1H-1,2,3-triazol-4-yl)methyl)-3-sulfamoylbenzamide]: the Ki on hCA IV worked out at 0.24 µM; on hCA II, 0.0497 µM; at hCA I it was 0.89 µM; at hCA IX, 0.0845 µM.

As for `COc1ccc(-n2cc(CNC(=O)c3ccc(F)c(S(N)(=O)=O)c3)nn2)cc1` [6o, 4-Fluoro-N-((1–(4-methoxyphenyl)-1H-1,2,3-triazol-4-yl)methyl)-3-sulfamoylbenzamide], the Ki came to 0.175 µM on hCA IV, 0.0735 µM at hCA II, 0.0692 µM at hCA I and 0.0631 µM at hCA IX.

Consider `NS(=O)(=O)c1cc(C(=O)NCc2cn(-c3ccc(C(F)(F)F)cc3)nn2)ccc1F` [6p, 4-Fluoro-3-sulfamoyl-N-((1–(4-(trifluoromethyl)phenyl)-1H-1,2,3-triazol-4-yl)methyl)benzamide], for which the Ki on hCA IV is 0.0918 µM; at hCA II, 0.0911 µM; at hCA I, 0.369 µM; at hCA IX, 0.235 µM.

`NS(=O)(=O)c1cc(C(=O)NCc2cn(-c3cccc(F)c3)nn2)ccc1F` [6q, 4-Fluoro-N-((1–(3-fluorophenyl)-1H-1,2,3-triazol-4-yl)methyl)-3-sulfamoylbenzamide]: the Ki turned out to be 5.31 µM on hCA IV, 0.329 µM on hCA II, 0.426 µM on hCA I and 0.0308 µM on hCA IX.

`Cc1ccc(-n2cc(CNC(=O)c3ccc(F)c(S(N)(=O)=O)c3)nn2)cc1` [6r, 4-Fluoro-3-sulfamoyl-N-((1-(p-tolyl)-1H-1,2,3-triazol-4-yl)methyl)benzamide]: the Ki stood at 0.215 µM on hCA IV, 0.26 µM on hCA II, 0.836 µM on hCA I and 0.0675 µM on hCA IX.

Regarding `N#Cc1cccc(-n2cc(CNC(=O)c3ccc(F)c(S(N)(=O)=O)c3)nn2)c1` [6s, N-((1–(3-cyanophenyl)-1H-1,2,3-triazol-4-yl)methyl)-4-fluoro-3-sulfamoylbenzamide], the Ki on hCA IV was 3.4 µM; at hCA II it was 0.402 µM; on hCA I, 0.696 µM; on hCA IX it was 0.0679 µM.

`NS(=O)(=O)c1cc(C(=O)NCc2cn(-c3ccc(Br)cc3)nn2)ccc1F` [6t, N-((1–(4-bromophenyl)-1H-1,2,3-triazol-4-yl)methyl)-4-fluoro-3-sulfamoylbenzamide]: the Ki was 0.515 µM on hCA IV, 0.372 µM at hCA II, 0.696 µM at hCA I and 0.0715 µM on hCA IX.
